Measured values published in ChEMBL document CHEMBL1133954, “The discovery of novel, potent and selective PDE5 inhibitors” (Bioorg Med Chem Lett, 2001).
pIC50: −log10 of the molar value.

How the values were obtained:
[1] = Relative inhibition of PDE1 from bovine heart and PDE5 from human platelets
[2] = Relative inhibition of PDE2 from rat kidney and PDE5 from human platelets
[3] = Relative inhibition of PDE4 from rat kidney and PDE5 from human platelets
[4] = Relative inhibition of PDE6 from bovine retina and PDE5 from human platelets
[5] = target: cGMP-specific 3',5'-cyclic phosphodiesterase (Homo sapiens, UniProt O76074); assay: Inhibition of PDE5 from human platelets

Row | Ratio [1] | Ratio [2] | Ratio [3] | Ratio [4] | pIC50 [5] | SMILES
1 | 130 | 1200 | 310 | 17 |  | CCCOc1ccc(S(=O)(=O)N2CC[C@@H](N(C)C)C2)cc1-c1nc(O)c2c(Cl)nc3nn(Cc4ccc(OC)cc4)cc3c2n1
2 |  | > 10000 | 2500 | 15 |  | CCCOc1ccc(S(=O)(=O)N2CC[C@@H](N(C)C)C2)cc1-c1nc(O)c2c(NCc3ccc(F)cc3)nc3nn(Cc4ccc(OC)cc4)cc3c2n1
3 |  |  |  |  | 8.77 | CCCOc1ccc(S(=O)(=O)N2CC[C@@H](N(C)C)C2)cc1-c1nc2c(c(NCc3ccc(F)cc3)nc3nn(Cc4ccc(OC)cc4)cc32)c(=O)[nH]1

Further lines, the molecule ahead of its results:

Row | SMILES | Ratio [1] | Ratio [2] | Ratio [3] | Ratio [4] | pIC50 [5]
4 | CCCOc1ccc(S(=O)(=O)N2CC[C@@H](N(C)C)C2)cc1-c1nc(O)c2c(NCc3ccc(F)cc3)[nH]c3nncc-3c2n1 |  |  | > 100000 | 160 | 
5 | CCCOc1ccc(S(=O)(=O)N2CC[C@@H](N(C)C)C2)cc1-c1nc(O)c2c(NCc3ccc(OC)c(Cl)c3)[nH]c3nncc-3c2n1 |  | > 10000 |  | 180 | 
6 | CCCOc1ccc(S(=O)(=O)N2CC[C@@H](N(C)C)C2)cc1-c1nc(O)c2c[nH]c3nncc-3c2n1 | 400 | 2000 | 3200 | 22 | 
7 | CCCOc1ccc(S(=O)(=O)N2CC[C@@H](N(C)C)C2)cc1-c1nc2c(c(Cl)nc3nn(Cc4ccc(OC)cc4)cc32)c(=O)[nH]1 |  |  |  |  | 7.89
8 | CCCOc1ccc(S(=O)(=O)N2CC[C@@H](N(C)C)C2)cc1-c1nc2c(c(NCc3ccc(F)cc3)nc3n[nH]cc32)c(=O)[nH]1 |  |  |  |  | 9.51
9 | CCCOc1ccc(S(=O)(=O)N2CC[C@@H](N(C)C)C2)cc1-c1nc2c(cnc3n[nH]cc32)c(=O)[nH]1 |  |  |  |  | 8.68
